In brackets after ≈: the same amount, converted by molar mass. Like-named read-outs stand apart in the source and are kept apart here.

These results are taken from patent US4298727A, “3',4'-Dideoxykanamycin A and 1-N-(S)-α-hydroxy-ω-aminoalkanoyl) derivatives thereof” (Zaidan Hojin Biseibutsu Kagaku KenkyuKai, priority 1979, dated 1981).

One assay deals with Providencia 19. The assay is described as follows: MIC, standard serial dilution on nutrient agar. The assay is classed as cell-based.
Assay [1] relates to resistant bacteria. As to conditions: in words, from Table 1. Here is the method:
The minimum inhibitory concentrations (mcg/ml) of the new compounds of this invention against various microorganisms were determined according to a standard serial dilution method using nutrient agar incubation medium at 37° C., the estimation being made after 18 hours incubation. For comparison purpose, the MIC. of kanamycin A, amikacin and dibekacin was also determined under the same test conditions.

Assay [2] has as its system Klebsiella pneumoniae 22 #3038. The assay can be described thus: MIC, standard serial dilution on nutrient agar. The assay is classed as cell-based.
Assay [3] concerns Staphylococcus aureus MS 9610. The assay can be described thus: MIC, standard serial dilution on nutrient agar. The assay is classed as cell-based.
The next assay has as its system Enterobacter HAU. The assay can be described thus: MIC, standard serial dilution on nutrient agar. Type of assay: cell-based.
For another assay, the system named is Sarcina lutea PCI 1001. The assay can be described thus: MIC, standard serial dilution on nutrient agar. The assay is classed as cell-based. As to conditions: Micrococcus luteus.
The next assay concerns Proteus rettgeri AUB. The assay can be described thus: MIC, standard serial dilution on nutrient agar. Type of assay: cell-based. As to conditions: Providencia rettgeri.
The next assay concerns Klebsiella BRIA. The assay can be described thus: MIC, standard serial dilution on nutrient agar. The assay is classed as cell-based.
A further assay relates to Serratia BOT. The assay is described as follows: MIC, standard serial dilution on nutrient agar. The assay is classed as cell-based.
The next assay deals with Enterobacter 666. The assay is described as follows: MIC, standard serial dilution on nutrient agar. The assay is classed as cell-based. As to conditions: 37° C., 18 hours.
A further assay concerns Escherichia coli K-12. The assay is described as follows: MIC, standard serial dilution on nutrient agar. The assay is classed as cell-based. As to conditions: K12, 37° C., 18 hours.
The subject of assay [4] is Pseudomonas aeruginosa A3. The assay is described as follows: MIC, standard serial dilution on nutrient agar. The assay is classed as cell-based.
For the next assay, the system named is Pyocyanique. The assay is described as follows: MIC, standard serial dilution on nutrient agar. Type of assay: cell-based.
A further assay concerns Proteus vulgaris BAC. The assay is described as follows: MIC, standard serial dilution on nutrient agar. Type of assay: cell-based.
For assay [5], the system named is Staphylococcus aureus APOI. The assay can be described thus: MIC, standard serial dilution on nutrient agar. Type of assay: cell-based. As to conditions: Staphylococcus aureus, 18 h.
In another assay the test system is Serratia 7. The assay can be described thus: MIC, standard serial dilution on nutrient agar. The assay is classed as cell-based.
Assay [6] deals with Staphylococcus aureus 209P. The assay can be described thus: MIC, standard serial dilution on nutrient agar. Type of assay: cell-based.
Another assay deals with Serratia CAT. The assay can be described thus: MIC, standard serial dilution on nutrient agar. The assay is classed as cell-based.
The test system of another assay is Klebsiella HOU. The assay is described as follows: MIC, standard serial dilution on nutrient agar. Type of assay: cell-based.
For the next assay, the system named is Providencia ZAO. The assay is described as follows: MIC, standard serial dilution on nutrient agar. Type of assay: cell-based.
Assay [7] concerns Escherichia coli K-12 ML 1629. The assay is described as follows: MIC, standard serial dilution on nutrient agar. As to conditions: K12ML1629, 37° C., 18 hours. Type of assay: cell-based.
In a further assay the test system is Klebsiella THO. The assay can be described thus: MIC, standard serial dilution on nutrient agar. The assay is classed as cell-based. As to conditions: Klebsiella, 18 h.
The subject of the next assay is Providencia Pv 37. The assay is described as follows: MIC, standard serial dilution on nutrient agar. The assay is classed as cell-based. As to conditions: PV37, 37° C., 18 hours.
Assay [8] relates to Staphylococcus epidermides 109. The assay can be described thus: MIC, standard serial dilution on nutrient agar. Type of assay: cell-based.
For another assay, the system named is Erwinia 7-22. The assay is described as follows: MIC, standard serial dilution on nutrient agar. Type of assay: cell-based. As to conditions: 722, 37° C., 18 hours.
Assay [9] has as its system Staphylococcus aureus MS 9883. The assay can be described thus: MIC, standard serial dilution on nutrient agar. Type of assay: cell-based.
Assay [10] deals with resistant bacteria. As to conditions: in words, background art; cited from earlier work.
Where [11] appears, read: Klebsiella pneumoniae 22 #3038, nutrient agar, 37° C., 18 hours, read-out: MIC.
Where [12] appears, read: Staphylococcus aureus, MS9610, 18 h.
[13] abbreviates: Pseudomonas aeruginosa A3, nutrient agar, 37° C., 18 hours, read-out: MIC.
Where [14] appears, read: Staphylococcus aureus, 209P, 18 h.
Where [15] appears, read: Klebsiella HOU, nutrient agar, 37° C., 18 hours, read-out: MIC.
Setting [16] is: MS9883, Staphylococcus aureus MS 9883, nutrient agar, 37° C., 18 hours, read-out: MIC.

As for `NCCC(O)C(=O)NC1CC(N)C(OC2OC(CN)CCC2O)C(O)C1OC1OC(CO)C(O)C(N)C1O` [Compound No. 2, 1-N-((S)-2-hydroxy-4-aminobutyryl)-3',4'-dideoxykanamycin A], the MIC (in general, the lowest concentration that inhibits growth of the organism) in the assay on Providencia 19 (Providencia 19, nutrient agar, 37° C., 18 hours, read-out: MIC.) is 3.12 µg/mL (≈ 5.64 µM); in assay [2] (setting [11]) it was 3.12 µg/mL (≈ 5.64 µM); in assay [3] (setting [12]) it was 1.56 µg/mL (≈ 2.82 µM); in the assay on Enterobacter HAU (Enterobacter HAU, nutrient agar, 37° C., 18 hours, read-out: MIC.) it was 12.5 µg/mL (≈ 22.6 µM); in the assay on Sarcina lutea PCI 1001 (PCI1001, Sarcina lutea PCI 1001, nutrient agar, 37° C., 18 hours, read-out: MIC.), 3.12 µg/mL (≈ 5.64 µM); in the assay with Proteus rettgeri AUB (Proteus rettgeri AUB, nutrient agar, 37° C., 18 hours, read-out: MIC.), 3.12 µg/mL (≈ 5.64 µM). Moreover, the MIC against Klebsiella BRIA (Klebsiella, 18 h) came to 1.56 µg/mL (≈ 2.82 µM); in the assay with Serratia BOT (Serratia, 18 h) it was 6.25 µg/mL (≈ 11.3 µM); in the assay with Enterobacter 666, 0.78 µg/mL (≈ 1.41 µM); with Escherichia coli K-12, 1.56 µg/mL (≈ 2.82 µM); in assay [4] (setting [13]), 3.12 µg/mL (≈ 5.64 µM); with Pyocyanique (Pyocyanique, nutrient agar, 37° C., 18 hours, read-out: MIC.) it was 12.5 µg/mL (≈ 22.6 µM). Besides, the minimal inhibitory concentration (MIC) was found to be 1.56 µg/mL (≈ 2.82 µM) in the assay with Proteus vulgaris BAC (Proteus vulgaris, 18 h); 0.78 µg/mL (≈ 1.41 µM) in [5]; 3.12 µg/mL (≈ 5.64 µM) in the assay with Serratia 7 (Serratia 7, nutrient agar, 37° C., 18 hours, read-out: MIC.); 1.56 µg/mL (≈ 2.82 µM) in [6] (setting [14]); 6.25 µg/mL (≈ 11.3 µM) with Serratia CAT (Serratia, 18 h); 3.12 µg/mL (≈ 5.64 µM) in the assay with Klebsiella HOU (setting [15]). Besides, the MIC against Providencia ZAO (Providencia, 18 h) amounted to 6.25 µg/mL (≈ 11.3 µM); in [7], 1.56 µg/mL (≈ 2.82 µM); with Klebsiella THO it was 1.56 µg/mL (≈ 2.82 µM); in the assay on Providencia Pv 37, 6.25 µg/mL (≈ 11.3 µM); in [8] (Staphylococcus, 109, 18 h), 0.78 µg/mL (≈ 1.41 µM); with Erwinia 7-22, 0.78 µg/mL (≈ 1.41 µM). Besides, the MIC in assay [9] (setting [16]) was found to be 3.12 µg/mL (≈ 5.64 µM). The “antibacterial activity against various resistant bacteria” value with resistant bacteria [1] is on record as “higher antibacterial activity against the various resistant bacteria than amikacin”.
With `NCC1CCC(O)C(OC2C(N)CC(NC(=O)C(O)CN)C(OC3OC(CO)C(O)C(N)C3O)C2O)O1` (racemic) [Compound No. 3, 1-N-(DL-2-hydroxy-3-aminopropionyl)-3',4'-dideoxykanamycin A], the MIC with Providencia 19 (Providencia, 19, 18 h) stood at 6.25 µg/mL (≈ 11.6 µM); in assay [2] (setting [11]) it was 3.12 µg/mL (≈ 5.78 µM); in [3] (MS9610, Staphylococcus aureus MS 9610, nutrient agar, 37° C., 18 hours, read-out: MIC.), 3.12 µg/mL (≈ 5.78 µM); with Enterobacter HAU (Enterobacter, 18 h), 25 µg/mL (≈ 46.3 µM); in the assay on Sarcina lutea PCI 1001 (PCI1001, 18 h) it was 6.25 µg/mL (≈ 11.6 µM); in the assay with Proteus rettgeri AUB (18 h) it was 6.25 µg/mL (≈ 11.6 µM). Further, the minimal inhibitory concentration (MIC) is 3.12 µg/mL (≈ 5.78 µM) in the assay with Klebsiella BRIA (Klebsiella BRIA, nutrient agar, 37° C., 18 hours, read-out: MIC.); 12.5 µg/mL (≈ 23.2 µM) in the assay with Serratia BOT (Serratia BOT, nutrient agar, 37° C., 18 hours, read-out: MIC.); 1.56 µg/mL (≈ 2.89 µM) in the assay with Enterobacter 666; 1.56 µg/mL (≈ 2.89 µM) in the assay on Escherichia coli K-12; 3.12 µg/mL (≈ 5.78 µM) in assay [4] (setting [13]); 50 µg/mL (≈ 92.7 µM) in the assay with Pyocyanique (18 h). Moreover, the MIC in the assay with Proteus vulgaris BAC (Proteus vulgaris BAC, nutrient agar, 37° C., 18 hours, read-out: MIC.) was determined as 3.12 µg/mL (≈ 5.78 µM); in [5] it was 1.56 µg/mL (≈ 2.89 µM); in the assay on Serratia 7 (Serratia, 7, 18 h), 6.25 µg/mL (≈ 11.6 µM); in [6] (Staphylococcus aureus 209P, nutrient agar, 37° C., 18 hours, read-out: MIC.), 3.12 µg/mL (≈ 5.78 µM); in the assay on Serratia CAT (Serratia CAT, nutrient agar, 37° C., 18 hours, read-out: MIC.), 12.5 µg/mL (≈ 23.2 µM); in the assay on Klebsiella HOU (setting [15]) it was 3.12 µg/mL (≈ 5.78 µM). For the same compound, the minimal inhibitory concentration (MIC) with Providencia ZAO (Providencia ZAO, nutrient agar, 37° C., 18 hours, read-out: MIC.) is 12.5 µg/mL (≈ 23.2 µM); in assay [7], 1.56 µg/mL (≈ 2.89 µM); in the assay with Klebsiella THO, 1.56 µg/mL (≈ 2.89 µM); with Providencia Pv 37 it was 6.25 µg/mL (≈ 11.6 µM); in assay [8] (Staphylococcus epidermides 109, nutrient agar, 37° C., 18 hours, read-out: MIC.), 3.12 µg/mL (≈ 5.78 µM); against Erwinia 7-22, 1.56 µg/mL (≈ 2.89 µM). For the same compound, the minimal inhibitory concentration (MIC) in assay [9] (setting [16]) turned out to be 3.12 µg/mL (≈ 5.78 µM).
As to `NCC1OC(OC2C(N)CC(N)C(OC3OC(CO)C(O)C(N)C3O)C2O)C(O)C(O)C1O` (centres unmarked) [Kanamycin A], the minimal inhibitory concentration (MIC) against Providencia 19 (Providencia, 19, 18 h) is more than 100 µg/mL; in assay [2] (Klebsiella pneumoniae, 18 h), more than 100 µg/mL; in [3] (setting [12]), 6.25 µg/mL (≈ 12.9 µM); in the assay with Enterobacter HAU (Enterobacter, 18 h), more than 100 µg/mL; against Sarcina lutea PCI 1001 (PCI1001, 18 h), 12.5 µg/mL (≈ 25.8 µM); against Proteus rettgeri AUB (18 h), more than 100 µg/mL. Moreover, the minimal inhibitory concentration (MIC) is more than 100 µg/mL in the assay with Klebsiella BRIA (Klebsiella, 18 h); 6.25 µg/mL (≈ 12.9 µM) against Serratia BOT (Serratia, 18 h); more than 100 µg/mL against Enterobacter 666; 3.12 µg/mL (≈ 6.44 µM) in the assay with Escherichia coli K-12; 25 µg/mL (≈ 51.6 µM) in assay [4] (Pseudomonas aeruginosa, A3, 18 h); 50 µg/mL (≈ 103 µM) in the assay on Pyocyanique (18 h). The minimum inhibitory concentration (MIC) against Proteus vulgaris BAC (Proteus vulgaris, 18 h) is more than 100 µg/mL; in [5] it was 12.5 µg/mL (≈ 25.8 µM); in the assay on Serratia 7 (Serratia, 7, 18 h) it was more than 100 µg/mL; in assay [6] (setting [14]), 3.12 µg/mL (≈ 6.44 µM); in the assay with Serratia CAT (Serratia, 18 h) it was more than 100 µg/mL; against Klebsiella HOU (Klebsiella, 18 h) it was more than 100 µg/mL. For the same compound, the MIC in the assay on Providencia ZAO (Providencia, 18 h) was more than 100 µg/mL; in assay [7], more than 100 µg/mL; against Klebsiella THO it was more than 100 µg/mL; with Providencia Pv 37, more than 100 µg/mL; in assay [8] (Staphylococcus, 109, 18 h), 25 µg/mL (≈ 51.6 µM); in the assay with Erwinia 7-22, more than 100 µg/mL. This compound also displayed an MIC in assay [9] (Staphylococcus aureus, MS9883, 18 h) of 6.25 µg/mL (≈ 12.9 µM).
On to “1-N-((S)-2-hydroxy-4-aminobutyryl)-5-O-β-D-xylofuranosyl- or ribofuranosyl-neamine [butirosins]”, for which the “activity against resistant bacteria” value in the assay with resistant bacteria [10] was “active against some kanamycin- and ribostamycin-resistant bacteria”.
